# “And” between values parts separate entries of the source, which are not always exact repeats. Identical values can stand only once.
# Tests used:
# [1] = tested on: rats with diabetes and insulinopenia induced by streptozotocin; details: streptozotocin-diabetic females after prolonged treatment (10 weeks), mated with healthy males; non-diabetic 100%; cited from earlier work
# IRS2−/− female mice [2] = experiment: Implantation and pregnancy study after cross-breeding with IRS2wt male mice; type: in vivo
# Description: (§1) Ten IRS2^−/− female mice of ages comprised between 6 and 8 weeks. Six “wild-type” (IRS2^wt) male mice of ages comprised between 6 and 8 weeks. The female and male mice were housed separately in normal conditions, i.e., a 12 h light/darkness cycle and controlled temperature and humidity. The animals were fed at will (also referred to as ad libitum) with a standard feed diet.
# (§2) After an acclimatization period, the IRS2^−/− female mice were housed in groups of 4-6 mice/cage. Tungstate salt-free drinking water was administered to the animals during the pre-treatment phase (2 weeks).
# (§3) Sodium tungstate was administered in the drinking water (ad libitum) by means of a solution of 2 mg/ml of sodium tungstate dihydrate (marketed by Carlo Erba) in distilled water after the pre-treatment phase (day 0 of treatment) and up to 4 weeks before sacrificing the animals. The daily dose of sodium tungstate ingested by the mice was about 180 mg/kg of body weight.
# After the first three weeks of treatment, the IRS2^−/− female mice were housed in cages in pairs together with a IRS2^wt male mouse continuously.
# The mice were observed daily to look for signs of pregnancy or birth.
# After 4 weeks, the male mice were exchanged between the cages and they were kept therein for another 4 weeks.
# The administration of tungstate was maintained for 8 weeks in which male and female mice were housed together. After these 8 weeks, treatment was withdrawn and the male and female mice were housed together for 4 additional weeks.
# After this period, the female mice were sacrificed and biopsy was carried out to look for indications of pregnancy.
# After the cross-breeding period of the method of section B, the female mice were sacrificed and biopsies were carried out to look for indications of pregnancy.
# IRS2−/− female mice [3] = experiment: Ovulation study: phase of the estrous cycle in vaginal smears (Papanicolau); type: in vivo; design: key to Phase of the estrous cycle in vaginal smear: A: Anestrus; D: Diestrus; P: Proestrus; E: Estrus; M: Metestrus; details: for Phase of the estrous cycle in vaginal smear: individual IRS2−/− female mice, dihydrate
# Excerpt: The mouse model used for determining the activity of tungsten (VI) salts for favoring normal reproduction and fertility is an Irs2 gene knock-out mouse, IRS2^−/−[Burks et. al., “IRS-2 pathways integrate female reproduction and energy homeostasis”, Nature, 2000, vol. 407, pp. 377-382]. Irs2 gene deletion translates into a clear sexual dimorphism in relation to fertility and carbohydrate metabolism.
# The male mice of this model have insulin resistance and severe hyperglycemia that started at an early age. In contrast, the female mice remain relatively euglycemic at an early age and develop slight insulin resistance which remains until a later age (4-5 months). IRS2^−/− female mice at an early age, about 10 weeks old, show a low follicular development and persistent anovulation, accompanied by the absence of estrous cycle in most mice. The pregnancy rate in IRS2^−/− female mice is 9% compared to the rate of 100% in IRS^wt (IRS-2^−/− wild type) female mice. Given that female mice at these ages remain euglycemic and that they only develop slight insulin resistance, the profound impairment in fertility is not a direct result of anomalies in glucose metabolism.
# as §1, §2, §3
# During the pre-treatment period and during the first 3 weeks of treatment, vaginal smears were performed in 6 randomly chosen female mice on days −8; −5; −2; −1; 7; 8; 14; 15 and 22, to determine the phase of the estrous cycle they were in.
# Between […] of saline solution was introduced into the vagina of the mice with a Pasteur pipette. Vaginal exudate was collected with the same pipette and spread on a slide. Once air-dried, it was fixed and stained with the Papanicolau technique.
# The Papanicolau technique comprises staining the vaginal smears fixed on the slide in the following manner: • 10 immersions in 50% v/v alcohol; • Immersing in Harris hematoxylin solution for 3 minutes; • Rinsing with running water; • 10 immersions in acid alcohol (1% hydrochloric acid); • Rinsing with running water; • 10 immersions in 95% v/v alcohol; • Immersing in OG-6 solution for 30 seconds; • 10 immersions in 96% v/v alcohol; • Immersing in eosin solution for 1 minute; • 10 immersions in 96% v/v alcohol; • 10 immersions in 86% v/v alcohol; and • 10 immersions in xylol
# The preparations were analyzed by trained staff using a coding in a single-blind manner for eliminating observer bias.
# The samples were identified in the following phases: diestrus, proestrus, estrus, metestrus, anestrus or non-evaluable. The cyclical nature of the four phases in periods of 4 to 6 days are indicative of a normal estrous cycle, whereas the absence of this cyclical nature and the persistence in anestrus, diestrus or proestrus phases are indicative of the absence of estrous cycle.
# [4] = tested on: HEC1-A endometrial cell line and JEG-3 trophectoderm cell line; experiment: In vitro endometrial embryonic adhesion study (JEG-3 spheroids on HEC-1A monolayer); type: cell-based, human; details: for Absolute adhesion rate / Absolute adhesion rate, Mean: HEC-1A treated 24 hours (sodium tungstate 10 μM); for Absolute adhesion rate: adhesion after 60 minutes; for Embryonic adhesion versus untreated HEC-1A cells (in words): HEC-1A treated 24 hours; for Absolute adhesion rate, Mean: Mean of Exp 1-3, baseline 30%
# Excerpt: An “in vitro” human-human embryonic adhesion model made up the HEC1-A endometrial cell line and the JEG-3 trophectoderm cell line was used to determine the effect of sodium tungstate on endometrial receptivity.
# The use of in vitro models, and specifically the model based on the mentioned cell lines (HEC-1A and JEG-3), is considered a standard model for studying endometrial receptivity and particularly the adhesion the trophoblast to the endometrium (Fertility and Sterility 2011; 96, 522-529; Methods in Enzymology 2006; 420:3-18 or FASEB J. 201; 26:3715-3727).
# The JEG-3 cell line which simulates the trophectoderm cells of a human embryo are cells that grow in monolayers in laboratory using low adherence plates and are capable of forming spheroids simulating the human embryo; this is one of the most widely used cell lines for conducting in vitro embryonic adhesion assay.
# The cell lines were commercially purchased (American Type Culture Collection (ATCC); Rockville, Md., USA) for conducting the endometrial embryonic adhesion experiments. They were thawed and expanded in 4 passes for obtaining sufficient cells to perform all the assays.
# The HEC1-A cells were plated in 24-well plates and cultured with McCoy 5A culture medium supplemented with 10% fetal bovine serum and 0.1% antibiotics (fungizone and penicillin), until reaching 90% confluence. After reaching the confluence, there was added to the culture medium sodium tungstate at a final concentration of 10 μM, as well as Withaferin A (as a control, a compound that prevents embryonic adhesion) or culture medium (baseline adhesion data), without any additional component, for 24 hours.
# The JEG-3 cells were plated in low adherent plates with Eagle's minimal essential medium (EMEM) culture medium supplemented with 10% fetal bovine serum and 0.1% antibiotics (fungizone and penicillin). Twenty-four hours before the adhesion assay, the JEG-3 trophoblast spheroids were formed from this culture. To that end, JEG-3 cells in the medium described above were suspended in an Erlenmeyer flask under stirring at a concentration of 6×10^5 cells/6 ml. The resulting spheroids were collected for the adhesion assay.
# For the adhesion assay, 24 hours after culturing the HEC-1A cells with culture medium adding sodium tungstate, Withaferin A or without adding any treatment, the culture medium was changed with fresh culture medium without treatments under study. The trophectoderm spheroids were added onto the monolayer of HEC-1A cells, placing 6 to 10 spheroids per well. The adhesion of the spheroids was measured after 60 minutes, counting spheroid that was floating in the culture medium as non-adhered spheroid and spheroid that was not floating as adhered spheroid. The examination was conducted with an inverted microscope (Nikon Diaphot 300; Nikon Corp., Tokyo, Japan). The assay was conducted in triplicate.
# [5] = individual treated IRS2−/− female mice, dihydrate
Compound,Percentage of births with respect to the number of positive curettages [1] [%],Pregnancy rate (IRS2−/− female mice [2]; IRS2−/− female mice treated with tungstate (untreated 9%)) [%],"Pregnancy (IRS2−/− female mice [2]; individual treated IRS2−/− female mice, 2 mg/ml in drinking water, cross-bred with IRS2wt males, dihydrate)",Number of embryos implanted or young born (embryos implanted) (IRS2−/− female mice [2]; [5]),Number of embryos implanted or young born (young born) (IRS2−/− female mice [2]; [5]),Mean of young/implanted embryos per pregnant female mouse (IRS2−/− female mice [2]; treated IRS2−/− female mice),"Phase of the estrous cycle in vaginal smear (IRS2−/− female mice [3]; day 7 of treatment, 2 mg/ml sodium tungstate dihydrate in drinking water (about 180 mg/kg/day))","Phase of the estrous cycle in vaginal smear (IRS2−/− female mice [3]; day 8 of treatment, 2 mg/ml in drinking water)","Phase of the estrous cycle in vaginal smear (IRS2−/− female mice [3]; day 14 of treatment, 2 mg/ml in drinking water)","Phase of the estrous cycle in vaginal smear (IRS2−/− female mice [3]; day 15 of treatment, 2 mg/ml in drinking water)","Phase of the estrous cycle in vaginal smear (IRS2−/− female mice [3]; day 22 of treatment, 2 mg/ml in drinking water)","Analyzed mice with recovery of the estrous cycle (IRS2−/− female mice [3]; on the seventh day of treatment, infertile, non-diabetic IRS2−/− female mice) [%]","Absolute adhesion rate ([4]; Exp 1, baseline 12%) [%]","Absolute adhesion rate ([4]; Exp 2, baseline 48%) [%]","Absolute adhesion rate ([4]; Exp 3, baseline 31%) [%]",Embryonic adhesion versus untreated HEC-1A cells (in words) [4],"Absolute adhesion rate, Mean [4] [%]"
"O.O.[Na+].[Na+].[O]=[W](=[O])([O-])[O-] [sodium tungstate, sodium tungstate dihydrate]",66,80,YES,7 embryos (3×) and 6 embryos,3 young and 8 young (2×) and 1 young,about 5,M and E (4×) and E-M,M and E-M (3×) and E (2×),E and E-M (3×) and D,D and E (2×) and M (2×) and A,D (2×) and A (2×) and M and P,100,31,65,35,higher percentage of embryonic adhesion,44
"CC1=C(CO)C(=O)O[C@@H]([C@@H](C)[C@H]2CC[C@H]3[C@@H]4C[C@H]5O[C@]56[C@@H](O)C=CC(=O)[C@]6(C)[C@H]4CC[C@]23C)C1 [Withaferin A, reference compound]",–,–,–,–,–,–,–,–,–,–,–,–,0,0,0,No adhesion whatsoever,0

# From patent US10376540B2, “Tungsten (VI) salts used to treat infertility, for stimulating fertility and normal reproduction in a non-diabetic female mammal, and for improving the effectiveness of assisted reproduction techniques” (OXOLIFE, S.L., priority 2014, dated 2019)
